Results reported in patent US12448398B2, “Semi-synthetic analogues of epipolythiodioxopiperazine alkaloids” (Ohio State Innovation Foundation, priority 2019, dated 2025).

How the values were obtained:
MLL1 = MLL1 (Homo sapiens, UniProt Q03164); details: in pancreatic cancer; cited from earlier work
[1] = tested on: PANC02-H7 or UN-KC-6141 cells; details: combination of 3 and anti PD-L1; cited from earlier work
[2] = tested on: metastatic colon carcinoma; details: combined treatment of 3 and 5-fluorouracil; cited from earlier work
[3] = tested on: panel of cancer cell lines; details: cited from earlier work
[4] = tested on: MDA-MB-435, MDA-MB-231 and OVCAR3 cells; experiment: Cytotoxicity assay against a panel of three cancer cell lines (CellTiter 96 AQueous, 72 h); type: cell-based, human; details: panel MDA-MB-435, MDA-MB-231, OVCAR3; relative to parent natural product
Method: (§1) Human melanoma cancer cells (MDA-MB-435), human breast cancer cells (MDA-MB-231) and human ovarian cancer cells (OVCAR3) were obtained from the American Type Culture Collection (Manassas, VA). The cell lines were cultured in RPMI 1640 medium containing fetal 10% bovine serum, 100 unites/mL penicillin and 100 μg/mL streptomycin. The cells were grown at 37° C. under 5% CO2, and then harvested during the log-phase growth by trypsinization followed by two washing to remove all traces of enzymes. Cells were seeded in 96-well clear, flat-bottom plate (Microtest 96, Falcon) at a density of 5000 cells per well. Each plate was incubated overnight at 37° C. under 5% CO2. Samples dissolved in DMSO were diluted and added to the appropriate wells to give final concentrations of 20, 4, 0.8, 0.16, and 0.032 μM for pure compounds, and a total volume of 100 μL and 0.5% DMSO per well. The cells with the test samples were then incubated for 72 h at 37° C. Cell viability was examined using a commercial absorbance assay (CellTiter 96® AQueous One Solution Cell Proliferation Assay, Promega Corp, Madison, WI). IC50 values were determined as the concentration required to diminish cellular growth by 50% compared to the untreated controls after 72 h of continuous exposure. Taxol (Paclitaxel) was used as a positive control.
Human melanoma cancer cells (MDA-MB-435), human breast cancer cells (MDA-MB-231) and human ovarian cancer cells (OVCAR3) were produced from the American Type Culture Collection (Manassas, VA). RPMI 1640 medium (fetal 10% bovine serum, 100 unites/mL penicillin and 100 μg/mL streptomycin) was used to culture cell lines. The cells were grown at 37° C. under 5% CO2, then harvested during the log-phase growth by trypsinization followed by two washing to remove all traces of enzymes. 96-well clear, flat-bottom plate (Microtest 96, Falcon) was used to seed the cells at a density of 5000 cells per well. […] Cell viability was examined using a commercial absorbance assay (CellTiter 96® AQueous One Solution Cell Proliferation Assay, Promega Corp, Madison, WI). […]

MDA-MB-231 cells = experiment: Cytotoxicity assay, human breast cancer cells; type: cell-based; details: vs verticillin H
Method: as §1, with “The cells with the test samples were then incubated for 72 h at 37° C.” left out, “IC50 values were determined as the concentration required to diminish cellular growth by 50% compared to the untreated controls after 72 h of continuous exposure. Taxol (Paclitaxel) was used as a positive control.” left out
(§2) Human melanoma cancer cells (MDA-MB-435), human breast cancer cells (MDA-MB-231) and human ovarian cancer cells (OVCAR3) were produced from the American Type Culture Collection (Manassas, VA). […] Cell viability was examined using a commercial absorbance assay (CellTiter 96® AQueous One Solution Cell Proliferation Assay, Promega Corp, Madison, WI). […]

OVCAR3 cells = experiment: Cytotoxicity assay, human ovarian cancer cells; type: cell-based; details: vs verticillin H
Method: as §1, with “The cells with the test samples were then incubated for 72 h at 37° C.” left out, “IC50 values were determined as the concentration required to diminish cellular growth by 50% compared to the untreated controls after 72 h of continuous exposure. Taxol (Paclitaxel) was used as a positive control.” left out
as §2

Sequence of MLL1 (Q15291 whole entry): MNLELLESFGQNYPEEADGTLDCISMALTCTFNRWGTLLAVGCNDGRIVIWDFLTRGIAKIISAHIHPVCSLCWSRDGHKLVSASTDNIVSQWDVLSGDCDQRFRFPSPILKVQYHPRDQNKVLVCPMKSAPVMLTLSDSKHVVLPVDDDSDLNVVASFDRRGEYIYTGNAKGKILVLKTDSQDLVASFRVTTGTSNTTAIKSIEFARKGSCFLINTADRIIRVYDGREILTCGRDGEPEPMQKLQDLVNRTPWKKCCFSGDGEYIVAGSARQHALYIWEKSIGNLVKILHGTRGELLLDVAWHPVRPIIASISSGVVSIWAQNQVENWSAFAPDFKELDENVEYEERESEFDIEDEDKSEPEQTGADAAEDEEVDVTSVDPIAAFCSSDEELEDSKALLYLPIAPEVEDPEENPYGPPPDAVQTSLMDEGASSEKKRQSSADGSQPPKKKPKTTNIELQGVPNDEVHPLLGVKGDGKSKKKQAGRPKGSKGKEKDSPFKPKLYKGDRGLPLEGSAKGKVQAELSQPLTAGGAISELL
Sequence of MLL1 (Q9UBL3 96-628, further chain): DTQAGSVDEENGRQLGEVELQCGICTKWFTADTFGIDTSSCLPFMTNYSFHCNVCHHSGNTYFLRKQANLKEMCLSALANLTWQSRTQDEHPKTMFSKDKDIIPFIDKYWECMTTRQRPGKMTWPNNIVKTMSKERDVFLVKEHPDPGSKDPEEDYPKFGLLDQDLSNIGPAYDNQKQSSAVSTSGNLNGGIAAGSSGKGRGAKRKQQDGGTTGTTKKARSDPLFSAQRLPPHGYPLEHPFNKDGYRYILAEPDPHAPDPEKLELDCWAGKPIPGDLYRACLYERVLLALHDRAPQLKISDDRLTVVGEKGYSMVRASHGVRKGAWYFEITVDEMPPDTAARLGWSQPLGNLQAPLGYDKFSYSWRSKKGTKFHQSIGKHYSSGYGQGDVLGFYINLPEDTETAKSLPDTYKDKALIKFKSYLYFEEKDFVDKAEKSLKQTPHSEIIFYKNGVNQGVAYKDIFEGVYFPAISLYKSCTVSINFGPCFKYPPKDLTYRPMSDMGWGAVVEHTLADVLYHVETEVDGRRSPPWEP
Sequence of MLL1 (Q03164 3745-3969): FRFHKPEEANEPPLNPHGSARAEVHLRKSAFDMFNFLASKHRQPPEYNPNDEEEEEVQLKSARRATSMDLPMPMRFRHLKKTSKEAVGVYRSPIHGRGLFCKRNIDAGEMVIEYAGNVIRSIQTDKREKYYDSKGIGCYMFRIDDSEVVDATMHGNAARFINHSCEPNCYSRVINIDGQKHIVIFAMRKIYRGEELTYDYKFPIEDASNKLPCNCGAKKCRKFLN

## CN1C(=O)C23SSC1(C)C(=O)N2C1Nc2ccccc2C1(C12c4ccccc4NC1N1C(=O)C4(C)SSC1(C(=O)N4C)C2O)C3O (centres unmarked) [Compound 3, verticillin A]
MLL1
  IC50: 800 nM
[1]
  Tumor size: significantly smaller tumor size
[2]
  Tumor size compared to control: significantly smaller tumors
[3]
  Cytotoxicity level, in words: nanomolar cytotoxicity

## CCCC(=O)O[C@H]1[C@]2([C@@]34c5ccccc5N[C@@H]3N3C(=O)[C@]5(CC)SS[C@]3(C(=O)N5C)[C@H]4O)c3ccccc3N[C@@H]2N2C(=O)[C@]3(CC)SS[C@]12C(=O)N3C [Compound 12]
[4]
  Potency compared with the parent compound, in words: more potent

## CC[C@@]12SS[C@]3(C(=O)N1C)[C@@H](O)[C@]1([C@@]45c6ccccc6N[C@@H]4N4C(=O)[C@]6(CC)SS[C@]4(C(=O)N6C)[C@H]5OC(=O)C(C)(C)C)c4ccccc4N[C@@H]1N3C2=O [Compound 14]
[4]
  Potency compared with the parent compound, in words: more potent

## CC[C@@]12SS[C@]3(C(=O)N1C)[C@@H](O)[C@]1([C@@]45c6ccccc6N[C@@H]4N4C(=O)[C@]6(CC)SS[C@]4(C(=O)N6C)[C@H]5OS(=O)(=O)c4ccc(F)cc4)c4ccccc4N[C@@H]1N3C2=O [Compound 17]
MDA-MB-231 cells
  Fold loss of potency relative to parent compound: 1.6 fold
OVCAR3 cells
  Fold increase of potency relative to parent compound: 2.9 fold

## CC[C@@]12SS[C@]3(C(=O)N1C)[C@@H](O)[C@]1([C@@]45c6ccccc6N[C@@H]4N4C(=O)[C@]6(CC)SS[C@]4(C(=O)N6C)[C@H]5OC(=O)N(C)C)c4ccccc4N[C@@H]1N3C2=O [Compound 19]
OVCAR3 cells
  Fold increase of potency relative to parent compound: 12.0 fold

## CCOC(=O)O[C@H]1[C@]2([C@@]34c5ccccc5N[C@@H]3N3C(=O)[C@]5(CC)SS[C@]3(C(=O)N5C)[C@H]4O)c3ccccc3N[C@@H]2N2C(=O)[C@]3(CC)SS[C@]12C(=O)N3C [Compound 16]
[4]
  Potency compared with the parent compound, in words: more potent
MDA-MB-231 cells
  Fold increase of potency relative to parent compound: 4.4 fold
